In ChEMBL document CHEMBL2157948, “Design, synthesis, and structure-activity-relationship of phenyl imidazoles as potent Smoothened antagonists” (Bioorg Med Chem Lett, 2012):
pIC50: −log10 of the molar value. Values after ≈ are worked out from the molar mass of the structure shown.

What was measured:
Mus musculus [1] = assay: Dose normalised AUC in po dosed mouse; type: ADME, organism-based; conditions: in vivo
Protein smoothened [2] = target: T1, Protein smoothened (Mus musculus, UniProt P56726); assay: Antagonist activity at Smo in mouse TM3 cells expressing Hh12 assessed as inhibition of 1 nM Ag1.5-induced Gli expression incubated for 30 mins prior to Ag1.5-induction measured after 48 hrs by luciferase reporter gene assay; type: functional, cell-based
Mus musculus [3] = assay: Clearance in po dosed mouse; type: ADME, organism-based; conditions: in vivo
Protein smoothened [4] = target: T1, Protein smoothened; assay: Antagonist activity at Smo in mouse TM3 cells expressing Hh12 assessed as inhibition of 25 nM Ag1.5-induced Gli expression incubated for 30 mins prior to Ag1.5-induction measured after 48 hrs by luciferase reporter gene assay; type: functional, cell-based
[5] = Mean residence time in mouse; type: ADME, organism-based; conditions: in vivo
[6] = Clearance in rat at 3 to 30 mg/kg; type: ADME, organism-based; design: dose 3-30 mg/kg; conditions: in vivo
Protein smoothened [7] = target: T1, Protein smoothened; assay: Antagonist activity at mouse Smo expressed in CHO cells assessed as inhibition of BODIPY-cyclopamine binding after 4 hrs by fluorescence assay; type: cell-based
[8] = Oral bioavailability in rat at 3 to 30 mg/kg; type: ADME, organism-based; conditions: in vivo
[9] = Volume of distribution at steady state in mouse; type: ADME, organism-based; conditions: in vivo, read-out: Vdss
[10] = Mean residence time in rat at 3 to 30 mg/kg; type: ADME, organism-based; design: dose 3-30 mg/kg; conditions: in vivo
[11] = Volume of distribution at steady state in rat at 3 to 30 mg/kg; type: ADME, organism-based; design: dose 3-30 mg/kg; conditions: in vivo, read-out: Vdss
[12] = Plasma protein binding in human; type: ADME, cell-free; conditions: read-out: PPB (converted)
[13] = Plasma protein binding in rat; type: ADME, cell-free; conditions: read-out: PPB (converted)
[14] = Ratio of drug uptake in brain to plasma in mouse; type: ADME, organism-based; conditions: read-out: BPR
[15] = Aqueous solubility of the compound at pH 7; type: physicochemical
[16] = Clearance in mouse; type: ADME, organism-based; conditions: in vivo
Protein smoothened [17] = target: Protein smoothened (Homo sapiens, UniProt Q99835); assay: Antagonist activity at human Smo expressed in CHO cells assessed as inhibition of BODIPY-cyclopamine binding after 4 hrs by fluorescence assay; type: cell-based
[18] = Permeability of the compound by PAMPA assay; type: ADME
[19] = Aqueous solubility of the compound at pH 1; type: physicochemical
[20] = Oral bioavailability in mouse; type: ADME, organism-based; conditions: in vivo

T1 sequence (P56726 whole entry): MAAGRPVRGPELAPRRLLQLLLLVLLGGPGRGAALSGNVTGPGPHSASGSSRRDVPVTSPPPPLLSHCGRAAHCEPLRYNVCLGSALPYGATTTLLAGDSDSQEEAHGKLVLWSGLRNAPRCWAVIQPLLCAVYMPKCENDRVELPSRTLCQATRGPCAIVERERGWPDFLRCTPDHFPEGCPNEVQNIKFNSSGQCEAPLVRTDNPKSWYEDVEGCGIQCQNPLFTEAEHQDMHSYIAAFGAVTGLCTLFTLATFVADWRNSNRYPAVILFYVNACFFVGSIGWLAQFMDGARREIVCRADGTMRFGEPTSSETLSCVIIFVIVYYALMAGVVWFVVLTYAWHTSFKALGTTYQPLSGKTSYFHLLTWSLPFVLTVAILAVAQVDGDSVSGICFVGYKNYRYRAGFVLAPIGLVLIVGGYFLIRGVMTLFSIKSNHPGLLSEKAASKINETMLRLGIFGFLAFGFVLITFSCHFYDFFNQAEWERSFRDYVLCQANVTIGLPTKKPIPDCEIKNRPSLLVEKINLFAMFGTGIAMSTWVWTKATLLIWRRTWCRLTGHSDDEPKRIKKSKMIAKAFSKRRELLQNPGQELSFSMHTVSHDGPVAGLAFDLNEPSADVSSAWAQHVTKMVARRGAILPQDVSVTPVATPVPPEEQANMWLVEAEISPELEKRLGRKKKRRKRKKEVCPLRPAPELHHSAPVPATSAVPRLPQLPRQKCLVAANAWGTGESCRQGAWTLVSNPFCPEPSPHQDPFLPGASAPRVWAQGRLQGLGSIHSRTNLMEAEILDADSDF
Sequence of Protein smoothened (Homo sapiens, UniProt Q99835) (Q99835 whole entry): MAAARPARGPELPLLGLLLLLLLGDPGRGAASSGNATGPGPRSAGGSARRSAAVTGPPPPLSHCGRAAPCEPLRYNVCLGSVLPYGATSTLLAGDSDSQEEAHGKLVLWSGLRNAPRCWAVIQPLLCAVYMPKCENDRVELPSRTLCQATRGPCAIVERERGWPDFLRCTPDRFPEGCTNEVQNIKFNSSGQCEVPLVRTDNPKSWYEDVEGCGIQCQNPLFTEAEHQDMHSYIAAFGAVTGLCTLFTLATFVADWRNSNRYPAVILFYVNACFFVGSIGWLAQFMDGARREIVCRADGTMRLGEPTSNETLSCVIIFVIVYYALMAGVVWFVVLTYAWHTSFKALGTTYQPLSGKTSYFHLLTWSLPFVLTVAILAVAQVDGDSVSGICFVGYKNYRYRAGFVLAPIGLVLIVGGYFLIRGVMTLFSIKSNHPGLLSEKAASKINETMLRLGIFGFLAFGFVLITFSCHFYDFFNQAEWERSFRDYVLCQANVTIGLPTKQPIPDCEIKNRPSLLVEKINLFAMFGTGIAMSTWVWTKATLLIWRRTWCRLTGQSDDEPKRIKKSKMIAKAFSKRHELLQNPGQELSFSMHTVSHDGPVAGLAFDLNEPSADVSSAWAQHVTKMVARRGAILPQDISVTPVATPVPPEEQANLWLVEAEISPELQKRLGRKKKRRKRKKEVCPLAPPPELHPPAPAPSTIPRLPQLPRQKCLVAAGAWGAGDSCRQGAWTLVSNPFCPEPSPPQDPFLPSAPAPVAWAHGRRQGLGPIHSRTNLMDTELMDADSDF

AUC/dose (Mus musculus [1]) | pIC50 (Protein smoothened [2]) | clearance (Mus musculus [3]) | pIC50 (Protein smoothened [4]) | Compound | further results
533 nM·h | 10.00 | 1.85 L/h/kg | 8.80 | C[C@@H]1CN(c2ccc3c(Nc4ccc(Cl)c(-c5ncc(-c6ccccc6)[nH]5)c4)nccc3c2)CCO1 | –
– | 9.70 | – | – | Cc1ccc(NC(=O)c2ccc(N3CCOCC3)cc2)cc1-c1nc(-c2ccccc2)c[nH]1 | –
– | 7.72 | – | 6.80 | Clc1ccc(Nc2nccc3ccccc23)cc1-c1ncc(-c2ccccc2)[nH]1 | –
– | 8.52 | – | 7.46 | C[C@@H]1CN(c2cnc3c(Nc4ccc(Cl)c(-c5nc(-c6ccccc6)c[nH]5)c4)cccc3n2)C[C@H](C)O1 | –
881 nM·h | 9.22 | 1.92 L/h/kg | 7.96 | C[C@@H]1CN(c2ccc3c(Nc4ccc(Cl)c(-c5ncc(-c6ccccc6)[nH]5)c4)nccc3n2)CCO1 | MRT [5]: 0.56 h; clearance [6]: 0.3 L/h/kg; pIC50 (Protein smoothened [7]): 8.80; bioavailability [8]: 53%; Vd [9]: 1.07 L/kg; MRT [10]: 3.33 h; Vd [11]: 1 L/kg; fraction unbound [12]: 0.039; fraction unbound [13]: 0.015; Kp [14]: 0.4; solubility [15]: < 0.001 mg/mL; clearance [16]: 1.92 L/h/kg; pIC50 (Protein smoothened [17]): 8.40; permeability [18]: permeable; solubility [19]: 0.093 mg/mL (≈ 187 µM); bioavailability [20]: 82%
101 nM·h | 10.00 | – | 8.59 | Clc1ccc(Nc2nccc3cc(N4CCOCC4)ccc23)cc1-c1ncc(-c2ccccc2)[nH]1 | –
492 nM·h | 9.52 | – | 8.30 | C[C@@H]1CN(c2ccc3c(Nc4ccc(Cl)c(-c5ncc(-c6ccccc6)[nH]5)c4)cccc3n2)C[C@H](C)O1 | –
499 nM·h | – | 1.48 L/h/kg | – | C[C@@H]1CN(c2ccc3c(Nc4ccc(Cl)c(-c5ncc(-c6ccccc6)[nH]5)c4)nccc3c2)C[C@H](C)O1 | –
– | 8.70 | – | 7.51 | O=S1(=O)CCN(c2ccc3c(Nc4ccc(Cl)c(-c5nc(-c6ccccc6)c[nH]5)c4)nccc3c2)CC1 | –
0 nM·h | 9.40 | – | 8.10 | C[C@@H]1CN(c2ccc3c(Nc4ccc(Cl)c(-c5nc(-c6ccccc6)c[nH]5)c4)ccnc3c2)C[C@H](C)O1 | –
268 nM·h | 9.70 | 1.99 L/h/kg | 8.22 | C[C@@H]1CN(c2ccc3c(Nc4ccc(Cl)c(-c5nc(-c6ccccc6)c[nH]5)c4)nccc3n2)C[C@H](C)O1 | –
